# Assay results published in ChEMBL document CHEMBL1649305, “Novel protease inhibitors (PIs) containing macrocyclic components and 3(R),3a(S),6a(R)-bis-tetrahydrofuranylurethane that are potent against multi-PI-resistant HIV-1 variants in vitro” (Antimicrob Agents Chemother, 2010).
# Active and inactive are the calls of the source. The calls are words filed in the database; no cut-off is given here.
# Experiments:
# [1] = tested on: Human immunodeficiency virus 2; test: Antiviral activity against HIV2 EHO infected in human MT2 cells by MTT assay; type: functional, organism-based; conditions: Human immunodeficiency virus 2, EHO
# [2] = tested on: Human immunodeficiency virus 1; test: Antiviral activity against HIV1 expressing protease L10F/M46I/T91S mutant infected in human MT4 cells selected at 1 uM of GRL-246 by MTT assay; type: functional, organism-based; conditions: Human immunodeficiency virus 1, MT4
# [3] = tested on: Human immunodeficiency virus 1; test: Ratio of EC50 for multidrug-resistant HIV1 isolate C containing protease L10I, I15V, K20R, L24I, M36I, M46L, I54V, I62V, L63P, K70Q, V82A, and L89M mutant to EC50 for wild type HIV1 ERS104 containing protease L63P mutant infected in human PHA-PBMC cells
# [4] = tested on: Human immunodeficiency virus 1; test: Antiviral activity against HIV1 NL4-3 infected in human MT4 cells at 1 uM after 20 passages by MTT assay; type: functional, organism-based
# [5] = tested on: Human immunodeficiency virus 1; test: Antiviral activity against multidrug-resistant HIV1 isolate B containing protease L10I, K14R, L33I, M36I,M46I, F53I, K55R, I62V, L63P, A71V, G73S, V82A, L90M, and I93L mutant infected in human PHA-PBMC cells by p24 Gag protein production inhibition assay; conditions: Human immunodeficiency virus 1, isolate B
# [6] = target: Protease (Human immunodeficiency virus 1) (UniProt Q9YQ12); test: Inhibition of protease dimerization in HIV1 infected in COS7 cells at 0.1 uM by FRET based assay; type: cell-based; conditions: COS-7
# [7] = tested on: Human immunodeficiency virus 1; test: Ratio of EC50 for multidrug-resistant HIV1 isolate G containing L10I, V11I, T12E, I15V, L19I,R41K, M46L, L63P, A71T, V82A, and L90M mutant to EC50 for wild type HIV1 ERS104 containing protease […] infected in human PHA-PBMC cells; type: functional
# [8] = tested on: Human immunodeficiency virus 1; test: Ratio of EC50 for multidrug-resistant HIV1 isolate JSL to EC50 for wild type HIV1 ERS104 containing protease […] infected in human PHA-PBMC cells
# [9] = tested on: Human immunodeficiency virus 1; test: Antiviral activity against HIV1 expressing protease L10I/L24I/M46I/V82I/I84V mutant infected in human MT4 cells selected after 50 passages of GRL-216 by MTT assay; type: functional, organism-based; conditions: Human immunodeficiency virus 1, MT4
# [10] = tested on: Human immunodeficiency virus 1; test: Antiviral activity against HIV1 NL4-3 infected in human MT4 cells after 50 passages by MTT assay; type: functional, organism-based
# [11] = tested on: Human immunodeficiency virus 1; test: Antiviral activity against HIV1 NL4-3 infected in human MT4 cells at 1 uM after 33 passages by MTT assay; type: functional, organism-based
# [12] = tested on: Human immunodeficiency virus 1; test: Antiviral activity against wild type HIV1 NL4-3 infected in human MT4 cells by p24 Gag protein production inhibition assay; conditions: Human immunodeficiency virus 1, NL4-3, MT4
# [13] = tested on: Human immunodeficiency virus 1; test: Antiviral activity against multidrug-resistant HIV1 isolate TM containing L10I, K14R, R41K, M46L, I54V, L63P, A71V, V82A, L90M, and I93L mutant infected in human PHA-PBMC cells by p24 Gag protein production inhibition assay; conditions: Human immunodeficiency virus 1, isolate TM
# [14] = tested on: Human immunodeficiency virus 1; test: Antiviral activity against HIV1 expressing protease L10F/M46I/I54V/V82A mutant infected in human MT4 cells selected at 5 uM of Lopinavir by p24 Gag protein production inhibition assay; conditions: Human immunodeficiency virus 1, MT4
# [15] = tested on: Human immunodeficiency virus 1; test: Antiviral activity against wild type HIV1 ERS104 containing protease L63P mutant infected in human PHA-PBMC cells by p24 Gag protein production inhibition assay; conditions: Human immunodeficiency virus 1, ERS104, PBMC
# [16] = tested on: Human immunodeficiency virus 1; test: Antiviral activity against HIV1 LAI infected in human MT2 cells by MTT assay; type: functional, organism-based; conditions: Human immunodeficiency virus 1, LAI
# [17] = tested on: Human immunodeficiency virus 1; test: Antiviral activity against HIV1 expressing protease L23I/E34Q/K43I/M46I/I50L/G51A/L63P/A71V/V82A/T91A mutant infected in human MT4 cells selected at 5 uM of atazanavir by p24 Gag protein production inhibition assay; conditions: Human immunodeficiency virus 1, MT4
# [18] = tested on: Human immunodeficiency virus 1; test: Antiviral activity against HIV1 expressing protease L10F/D30N/K45I/A71V/T74S mutant infected in human MT4 cells selected at 5 uM of nelfinavir by MTT assay; type: functional, organism-based; conditions: Human immunodeficiency virus 1, MT4
# [19] = Cytotoxicity against human MT2 cells after 7 days by MTT assay; type: cell-based
# [20] = tested on: Human immunodeficiency virus 1; test: Antiviral activity against multidrug-resistant HIV1 isolate MM containing L10I, K43T, M46L, I54V, L63P, A71V, V82A, L90M, and Q92K mutant infected in human PHA-PBMC cells by p24 Gag protein production inhibition assay; conditions: Human immunodeficiency virus 1, isolate MM
# [21] = tested on: Human immunodeficiency virus 1; test: Antiviral activity against HIV1 expressing protease L10F/M46L/I50V/A71Vmutant infected in human MT4 cells selected at 1 uM of GRL-286 by MTT assay; type: functional, organism-based; conditions: Human immunodeficiency virus 1, MT4
# [22] = tested on: Human immunodeficiency virus 2; test: Antiviral activity against HIV2 ROD infected in human MT2 cells by MTT assay; type: functional, organism-based; conditions: Human immunodeficiency virus 2, ISOLATE ROD
# [23] = tested on: Human immunodeficiency virus 1; test: Antiviral activity against HIV1 expressing protease L10F/M46I/I50V/A71V/I84V/L90M mutant infected in human MT4 cells selected at 5 uM of amprenavir by p24 Gag protein production inhibition assay; conditions: Human immunodeficiency virus 1, MT4
# [24] = tested on: Human immunodeficiency virus 1; test: Antiviral activity against HIV1 NL4-3 infected in human MT4 cells at 1 uM after 37 passages by MTT assay; type: functional, organism-based
# [25] = tested on: Human immunodeficiency virus 1; test: Antiviral activity against multidrug-resistant HIV1 isolate JSL containing L10I, L24I, I33F, E35D, M36I, N37S, M46L, I54V, R57K, I62V, L63P, A71V, G73S, and V82A mutant infected in human PHA-PBMC cells by p24 Gag protein production inhibition assay; conditions: Human immunodeficiency virus 1, isolate JSL
# [26] = tested on: Human immunodeficiency virus 1; test: Antiviral activity against multidrug-resistant HIV1 isolate C containing protease L10I, I15V, K20R, L24I, M36I, M46L, I54V, I62V, L63P, K70Q, V82A, and L89M mutant infected in human PHA-PBMC cells by p24 Gag protein production inhibition assay; conditions: Human immunodeficiency virus 1, isolate C
# [27] = Selectivity ratio of CC50 for human MT2 cells to EC50 for HIV1 LAI infected human MT2 cells; type: ADME, cell-based; conditions: MT2 cells (CC50) and HIV1 LAI infected MT2 cells (EC50)
# [28] = tested on: Human immunodeficiency virus 1; test: Antiviral activity against HIV1 expressing protease L10F/M46M,I/Q61Q mutant infected in human MT4 cells selected at 1 uM of GRL-396 by MTT assay; type: functional, organism-based; conditions: Human immunodeficiency virus 1, MT4
# [29] = tested on: Human immunodeficiency virus 1; test: Antiviral activity against multidrug-resistant HIV1 isolate G containing L10I, V11I, T12E, I15V, L19I,R41K, M46L, L63P, A71T, V82A, and L90M mutant infected in human PHA-PBMC cells by p24 Gag protein production inhibition assay; conditions: Human immunodeficiency virus 1, isolate G
# [30] = tested on: Human immunodeficiency virus 1; test: Antiviral activity against HIV1 expressing protease L10I/G48V/I54V/A71V/I84V/L90M mutant infected in human MT4 cells selected at 5 uM of saquinavir by p24 Gag protein production inhibition assay; conditions: Human immunodeficiency virus 1, MT4
smiles,measurement,setting,value
COc1ccc2c(c1)OCCC/C=C\CCCCN(C[C@@H](O)[C@H](Cc1ccccc1)NC(=O)O[C@H]1CO[C@H]3OCC[C@H]31)S2(=O)=O,EC50,[1],18 nM
same,EC50,[2],330 nM
same,Ratio EC50,[3],4
same,Activity,[4],inactive
same,EC50,[5],89 nM
same,inhibition,[6],Active
same,Ratio EC50,[7],4
same,Ratio EC50,[8],15
same,EC50,[9],190 nM
same,Activity,[10],inactive
same,Activity,[11],inactive
same,EC50,[12],9 nM
same,EC50,[13],72 nM
same,EC50,[14],350 nM
same,EC50,[15],7 nM
same,EC50,[16],4 nM
same,EC50,[17],30 nM
same,EC50,[18],41 nM
same,CC50 at 168 h,[19],33100 nM
same,EC50,[20],55 nM
same,EC50,[21],> 1000 nM
same,EC50,[22],25 nM
same,EC50,[23],> 1000 nM
same,Activity,[24],inactive
same,EC50,[25],210 nM
same,EC50,[26],29 nM
same,selectivity ratio,[27],8280
same,EC50,[28],250 nM
same,EC50,[29],28 nM
same,EC50,[30],46 nM
